This note sets out measurements from US11499978B2, “Method for measuring quality of therapeutic cell through real-time glutathione measurement” (CELL2IN, INC., priority 2017, dated 2022).

In assay [1] the test system is hUC-MSCs. Description: CFU-F assay of hUC-MSCs. The class given is cell-based, human. The conditions noted are these: 125 or 250 μg/mL AA2G for three days, n=3. On the procedure: The inventors observed an effect of the material on stem cells by treating each stem cells with a material for enhancing a glutathione evaluation parameter. When hUC-MSCs were subcultured in a L-AA2G-containing medium, CFU-F, migration capacity, and an anti-inflammatory effect were observed. A CFU-F assay (n=3) was performed by treating hUC-MSCs with 125 or 250 μg/mL of AA2G for three days. As shown in FIGS. 16A and 16B, it was confirmed that, when AA2G was treated, CFU-F increased. In addition, as hUC-MSCs were treated with 125 or 250 μg/mL of AA2G for three days, PDGF-AA-induced migration capacity (n=3) was analyzed. As shown in FIGS. 17A and 17B, it was confirmed that the migration capacity was increased by AA2G treatment. In addition, the reduction in T cell proliferation, the reduction in T cell differentiation, and the promotion of Treg cell differentiation were observed by treating hUC-MSCs with 125 or 250 μg/mL of AA2G for three days. […] Meanwhile, hUC-MSCs were cultured with a glutathione precursor such as γ-glutamyl cysteine (GGC, 0.1, 0.25, and 0.5 mM). A CFU-F assay (n=3) was performed by treating hUC-MSCs with each concentration of GGC for 2 hours. […] In addition, SDF1α and PDGF-AA-induced migration capacities (n=3) were analyzed for hUC-MSCs without treatment with GGC, and SDF1α and PDGF-AA-induced migration abilities (n=3) were analyzed by treating hUC-MSCs with the increasing concentrations of GGC. STI571 was used as a PDGFR kinase inhibitor. As shown in FIGS. 20A to 20C, it was confirmed that, according to an increase in GGC treatment concentration, SDF1α- and PDGF-AA-induced migration capacities were enhanced. A CFU-F assay (n=3) was performed by treating hUC-MSCs with 0.2, 1, 2, and 4 μM ferrostatin-1 and 0.1, 0.5, 1, and 2 μM liproxstatin-1 for 24 hours.

The test system of assay [2] is T cells. Description: Anti-inflammatory effect of treated hUC-MSCs on T cells. The settings on record: hUC-MSCs treated with 125 or 250 μg/mL AA2G for three days. The class given is cell-based. On the procedure:
The inventors observed an effect of the material on stem cells by treating each stem cells with a material for enhancing a glutathione evaluation parameter. When hUC-MSCs were subcultured in a L-AA2G-containing medium, CFU-F, migration capacity, and an anti-inflammatory effect were observed. A CFU-F assay (n=3) was performed by treating hUC-MSCs with 125 or 250 μg/mL of AA2G for three days. As shown in FIGS. 16A and 16B, it was confirmed that, when AA2G was treated, CFU-F increased. In addition, as hUC-MSCs were treated with 125 or 250 μg/mL of AA2G for three days, PDGF-AA-induced migration capacity (n=3) was analyzed. As shown in FIGS. 17A and 17B, it was confirmed that the migration capacity was increased by AA2G treatment. In addition, the reduction in T cell proliferation, the reduction in T cell differentiation, and the promotion of Treg cell differentiation were observed by treating hUC-MSCs with 125 or 250 μg/mL of AA2G for three days.
In addition, hUC-MSCs were cultured with ferrostatin-1 (0.2, 1, 2 and 4 μM) and liproxstatin-1 (0.1, 0.5, 1 and 2 μM), which control a glutathione level in cells by inhibiting lipid oxidation. […] Meanwhile, the hUC-MSCs were treated with 1 μM ferrostatin-1 for 24 hours, 0.2 mM GGC for 2 hours, and 2 mM GSH-EE for 2 hours. As a result, the reduction in T cell proliferation ability and the reduction in T cell differentiation capacity were observed, and promotion of Treg cell differentiation was observed.

Assay [3] relates to hUC-MSCs. Nature of the assay: Oxidative stress resistance capacity (ORC) analysis in hUC-MSCs with RSL3. In kind it is cell-based, human. The conditions noted are these: hUC-MSCs subcultured three times with AA2G 250 μg/mL; compared with naive cell group (NC). How it is done: GRC refers to a value obtained by real-time monitoring of FR after living cells are treated with an oxidizing agent, as calculated by dividing a value obtained by subtracting AUC of a group treated with 0.1-100 mM N-ethylmaleimide (NEM) from FR AUC of an oxidizing agent (diamide, H2O2, etc.)-treated group by a value obtained by subtracting the AUC of NEM-treated group from AUC of the untreated control, and multiplying the resulting value by 100. The FR of the NEM-treated group is a value for increasing the sensitivity of a GRC value by treating it as the blank value of the FR of the cells of interest. […] To remove the MitoFreSH-Tracer from the medium before measurement, the medium was exchanged with fresh 10 mM HEPES-containing HBSS(Hanks' Balanced Salt Solution), and a fluorescence image was obtained using a confocal imaging system, Operetta. By comparing GSH levels quantified from control cells not treated with RSL3 or control cells before treated with RSL3, the distribution of GSH expression-changed cells was calculated. Based on the point where the distribution histogram is divided into two peaks, the cells were divided into GSH^High cells (right peak) and GSH^Low cells (left peak), and then a ratio of corresponding cells was expressed as a percentage (%). […]

Molecules are shown by their SMILES.

For the compound `O=C1O[C@H]([C@@H](O)CO)C(O)=C1O[C@H]1O[C@H](CO)[C@@H](O)[C@H](O)[C@H]1O` [AA2G, ascorbic acid 2-glucoside], the CFU-F entry in assay [1] is on record as “increased”. For the same compound, in assay [2], the T cell differentiation entry is listed as “reduction”, the T cell proliferation entry was “reduction”, the Treg cell differentiation entry was “promotion” and the “anti-inflammatory effect of stem cells” value is recorded as “exhibited”. Also, in assay [3], the “FreSH-Tracer-based ORC (GSH^High cells)” value is listed as “higher”.
